What was measured:
[1] = route: IV or PO; cited from earlier work
[2] = system: BxPC3 pancreatic cancer cell line; experiment: Median survival time (time to survival endpoint) in BxPC-3 xenograft model; assay type: in vivo, mouse; details: three 4-week dosing cycles; PEGPH20 4.5, nab-paclitaxel 10 mg/kg, gemcitabine 180 mg/kg
Protocol: Following the first four week dosing cycle as set forth in part A, the dosing cycle was repeated two times and time to survival endpoint was followed over time. Briefly, in each dosing cycle, animals were treated with vehicle or PEGPH20 ([…]) with or without nab-paclitaxel (10 mg/kg) intravenously twice a week for four weeks. In each cycle, groups receiving gemcitabine were administered gemcitabine (180 mg/kg) 24 hours after PEGPH20 and/or nab-paclitaxel every 7 days for three weeks of the dose cycle. Time to survival endpoint, a measure of animal survival, was defined as (a) time to tumor volume of greater than 2000 mm^3, (b) time to a greater than 20% bodyweight loss, or (c) time to animal duress or death.

[3] = system: carbohydrate antigen 19-9 (CA19-9); experiment: Serum CA19-9 tumor biomarker ELISA in BxPC-3 xenograft model; assay type: in vivo, mouse; details: day 20 of first dosing cycle
Protocol: C. Measurement of Tumor Biomarkers Biomarkers carbohydrate antigen 19-9 (CA19-9) and carcinoembryonic antigen (CEA) associated with pancreatic cancer were tested to measure therapeutic response. Animals were treated as described in part A. Serum was collected from satellite animals ([…]) from each group on day 0, 6, 13 and 20 of the first dosing cycle. Human CA19-9 was measured using a CA 19-9 ELISA kit (Catalog No. CA199T, Calbiotech, Spring Valley, Calif.) and CEA tumor antigen was measured using a CEA ELISA kit (Catalog No. CE062T, Calbiotech, Spring Valley, Calif.).

[4] = in vivo; cited from earlier work
pancreatic cancer = details: gemcitabine monotherapy (Burris et al. 1997); cited from earlier work
[5] = system: BxPC3 pancreatic cancer cell line; experiment: Tumor growth inhibition in BxPC-3 human pancreatic tumor xenograft model; assay type: in vivo, mouse; details: gemcitabine 60, 120, 180 and 240 mg/kg once a week, day 0, 7, 14, 21
Protocol: Tumor cells from the BxPC3 pancreatic cancer cell line (American Tissue Culture Collection (ATCC) CRL-1687) were grown to approximately 80% confluency, trypsinized, collected, washed once in HBSS (Hank's balance salt solution, Mediatech Inc.). Prior to inoculation, cells were washed twice with sterile HBSS, counted using a Nexcelom Cellometer (Nexcelom Bioscience; Lawrence, Mass.) automated counting device which determines cell concentration and viability via Trypan Blue exclusion and diluted with HBSS to a concentration of 1×10^8 cells/mL on ice before inoculation into animals. Male nude mice (Athymic NCr nu/nu mice, Taconic Laboratories, Inc.) approximately 6 weeks old, were inoculated intramuscularly (IM) with 0.05 mL of cell suspension, peritibially, in the left hind leg (adjacent to the tibia periosteum). The tumors in the animals were assessed twice a week and allowed to grow to a mean tumor volume of approximately 350-400 mm^3. Actual tumor volumes were determined using VisualSonics Vevo 770 high-resolution ultrasound (VisulaSonics Inc.; Toronto, Ontario, Canada). […]
The tumor volumes of all mice were measured by capturing images using the VisualSonics ultrasound system 2 times per week. Tumor volume was calculated using a 3D-mode imaging software program (VisualSonics® Vevo 770®, v 3.0.0). The percent tumor growth inhibition (% TGI) was calculated by the following equation: […]

cytidine deaminase = target: T1, cytidine deaminase (Homo sapiens, UniProt P32320); details: cited from earlier work
T1 construct: for the enzyme purified from human liver; host or cells: human liver
T1 sequence (P32320 whole entry): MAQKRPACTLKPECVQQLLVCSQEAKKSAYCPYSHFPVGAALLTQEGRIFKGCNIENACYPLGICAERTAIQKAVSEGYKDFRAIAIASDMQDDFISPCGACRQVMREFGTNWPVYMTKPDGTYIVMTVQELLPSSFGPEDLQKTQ

B16 melanoma model = details: oral 600 mg/kg/d (Yoshihara et al. 2005); cited from earlier work

## C[C@H]1C[C@@H]2[C@H]([C@@H](O)C[C@@]3(C)[C@H]2CC[C@]3(O)C(=O)COC(=O)CCC(=O)O)[C@@]2(C)C=CC(=O)C=C12 [Methylprednisolone sodium succinate]
[1]
  Equivalent Potency: 4 mg

## C[C@]12CCC(=O)C=C1CC[C@@H]1[C@@H]2[C@@H](O)C[C@@]2(C)[C@H]1CC[C@]2(O)C(=O)CO [Hydrocortisone]
[1]
  Equivalent Potency: 20 mg

## Nc1ccn([C@@H]2O[C@H](CO)[C@@H](O)C2(F)F)c(=O)n1 [gemcitabine, 2′,2′-difluorodeoxycytidine]
[2]
  Median Survival Time: 38 days
[3]
  level of CA19-9 marker in serum: approximately similar to vehicle only control
[4]
  half-life in plasma: approximately 10 minutes
Pancreatic cancer
  median survival: over 5 months
[5]
  tumor growth compared to vehicle only: inhibited tumor growth at all doses tested

## Nc1ccn([C@H]2C[C@H](O)[C@@H](CO)O2)c(=O)n1 [deoxycytidine]
Cytidine deaminase
  rate of deamination relative to decitabine at equal concentrations: about 6 fold

## Cc1cc(=O)oc2cc(O)ccc12 [4-MU, 7-hydroxy-4-methylcoumarin]
B16 melanoma model
  reduction of metastases: 64%

## C[C@]12C=CC(=O)C=C1CC[C@@H]1[C@@H]2[C@@H](O)C[C@@]2(C)[C@H]1CC[C@]2(O)C(=O)CO [Prednisolone]
[1]
  Equivalent Potency: 5 mg
